Measured values from US12622922B2, “Compositions and methods for metal containing formulations capable of modulating immune response” (The Regents of the University of Michigan, priority 2018, dated 2026).

Columns and labels:
CT26 colon cancer cells [1] = assay: CT26 colon tumor model, metal ion plus STING agonist CDA, intratumoral; type: in vivo, Balb/c mice; settings: CT26 tumor-bearing mice
Procedure: FIG. 6: Enhanced STING activation and cancer therapy efficacy by Co^2+ and Mn^2+ in vivo. a) individual tumor growth curve after three dose of intratumor injection of the indicated formulation at day 9, 12, 15 after tumor inoculation. b) Serum IFN-beta concentration 8 h after the 1st dose of the indicated formulation. c-d) individual tumor growth (c) and survival (d) of the tumor bearing mice after treated with the indicated formulations.
FIG. 7: Enhanced STING activation by Co^2+ and Mn^2+ led to improved antigen specific immune response after in vivo. a) the percentage of AH1-specific CD8+ T cells among PBMC on day 16. b) IFN-γ secreting cells counts per 5E4 PBMCs after stimulation with AH1 peptides at day 22. c-e) timeline (c). tumor growth curve (d) and AH1-specific CD8+ T cells percentage in spleen CD8+ T cells (e) in tumor re-challenging study starting from day 81. […]
We examined whether the enhanced type-I IFN response in vitro could benefit cancer treatment in vivo. We evaluated the combination of metal ions and STING agonist in a murine tumor model.
To study the mechanisms of action for the improved cancer therapy efficacy, we evaluated the treated animals for antigen-specific T cell responses and performed tumor re-challenging study after 81 days of the initial treatment.

CT26 colon cancer cells [2] = system: CT26 colon cancer cells
Procedure: When tumor size reach ˜60 mm^3, 2 doses of 25 μg/dose cdAMP(ps)2 were administrated intra-tumorally on days 10 and 15. To evaluate antigen-specific immune responses, PBMCs were collected for tetramer staining on day 17 and ELISPOT analysis with AH1 antigen peptides on day 22.
Female Balb/c mice of age 6-8 weeks (Jackson Laboratories) were inoculated with 1×10^5 CT26 colon cancer cells. When tumor size achieved ˜100 mm^3, 2 doses of 25 μg cdAMP(ps)2 in different formulations were administrated via intra-tumoral route on day 10 and day 15. Tumor size and survival were monitored every 2 or 3 days. Tumor size was calculated based on equation: volume=length×width^2×0.5. Animals were euthanized when the tumor reached 1.5 cm in diameter or when animals became moribund with severe weight loss or ulceration. At day 17, the percentages of tumor antigen-specific CD8α+ T cells among PBMC were analyzed using the tetramer staining assay as described previously with peptide-MHC tetramer (H-2Kb-restricted AH1) (the NIH Tetramer Core Facility, Atlanta, GA). On day 22, ELISPOT assay was performed with PBMC from the treated mice as described previously.
We also evaluated a subset of the formulations mentioned above in tumor-bearing mice. When tumor size reached ˜60 mm^3, 2 doses of indicated formulation with 25 μg/dose adAMP(ps)2 were administrated intratumorally on days 10 and 15.

[3] = system: cGAS-STING-Type I IFN pathway; assay: Inhibition of DNA/lipofectamine-induced IFN-I response in THP 1 dual-KI-hSTING WT(R232) reporter cells; type: cell-based, human; settings: DNA/lipofectamine complex challenging, ISRE induced luminescence
Source text: (§1) FIG. 18: Chelating metal ions to inhibit cGAS-STING-Type I IFN pathway. a) Molecular structure of representative chelators that could inhibit cGAS-STING-Type I IFN pathway. b-c) Dose-inhibition curves of the IFN-I response (b) and NF-kB inflammation response (c) by the indicated compounds in DNA/lipofectamine 2000 (ThermoFisher, 11668027) treated THP 1 dual-KI-hSTING^WT(R232) reporter cells (Invivogen, thpd-r232). d) Cellular viability of b-c. e) Dose-inhibition curves of the IFN-I response by the indicated compounds in DNA/lipofectamine 2000 (ThermoFisher, 11668027) treated THP 1-ISG hSTING^HAQ reporter cells (Invivogen, thp-isg). […]
(§2) Given the interesting function of metal ions on modulating innate immune response in our finding, we further evaluated whether chelating metal ions could inhibit the according innate immune pathways, which may be used to treat autoimmune diseases, such as Systemic lupus erythematosus, Aicardi-Goutières syndrome, Acute pancreatitis Age-dependent macular degeneration, Alcoholic liver disease, Liver fibrosis, Metastasis, Myocardial infarction, Nonalcoholic steatohepatitis (NASH), Parkinson's disease, Polyarthritis/fetal and neonatal anemia, Sepsis, inflammatory bowel disease, multiple sclerosis, etc. […] By a ISRE induced luminescence, we could read the degree of inhibition. […]

[4] = system: THP 1 dual-KI-hSTING^WT(R232) reporter cells; assay: Cellular viability of chelator-treated THP 1 dual-KI-hSTING WT(R232) reporter cells; type: cell-based, human
Source text: as §1, §2

Compound	survival rate (CT26 colon cancer cells [1]) [%]	AH1 antigen-specific T cell response (ELISPOT) (CT26 colon cancer cells [2]; PBMC, day 22, seven days after the 2nd dose)	complete tumor regression (CT26 colon cancer cells [2]; number of mice out of 5)	IC50 of DNA-induced Type I IFN response [3]	tolerability in in-vitro assay (cellular viability) [4]
Nc1ncnc2c1ncn2[C@@H]1O[C@@H]2COP(=O)(O)O[C@H]3[C@@H](O)[C@H](n4cnc5c(N)ncnc54)O[C@@H]3COP(=O)(O)O[C@H]2[C@H]1O [free CDA]	20				
cdAMP(ps)2 [free CDN]		significant	2 out of 5		
O=C(OC[C@H]1O[C@@H](OC(=O)c2cc(O)c(O)c(OC(=O)c3cc(O)c(O)c(O)c3)c2)[C@H](OC(=O)c2cc(O)c(O)c(OC(=O)c3cc(O)c(O)c(O)c3)c2)[C@@H](OC(=O)c2cc(O)c(O)c(OC(=O)c3cc(O)c(O)c(O)c3)c2)[C@@H]1OC(=O)c1cc(O)c(O)c(OC(=O)c2cc(O)c(O)c(O)c2)c1)c1cc(O)c(O)c(OC(=O)c2cc(O)c(O)c(O)c2)c1 [tannin acid]				as low as nanomolar level	well-tolerated
O=C1O[C@H]2[C@@H]3OC(=O)c4cc(O)c(O)c(O)c4-c4c(O)c(O)c5oc(=O)c6c(c(O)c(O)c7oc(=O)c4c5c76)-c4c(cc(O)c(O)c4O)C(=O)OC[C@H]3OC(O)[C@@H]2OC(=O)c2cc(O)c(O)c(O)c2-c2c1cc(O)c(O)c2O (mixture of isomers) [Punicalagin]				as low as nanomolar level	well-tolerated
